According to publication PMC10687119, “Quaternary Ammonium Salts of Cationic Lipopeptides with Lysine Residues — Synthesis, Antimicrobial, Hemolytic and Cytotoxic Activities” (Probiotics and Antimicrobial Proteins, 2023):
≈ marks a conversion by molar mass, not a printed value. Like-named read-outs stand apart in the source and are kept apart here.

Key:
P. aeruginosa ATCC 9027 = assay type: cell-based, Pseudomonas aeruginosa; conditions: ATCC 9027, 18 h
Method: (§1) The Acinetobacter baumannii ATCC BAA-1605, Enterococcus faecium ATCC 700221, Klebsiella aerogenes ATCC 13048, Klebsiella pneumoniae ATCC 700603, Pseudomonas aeruginosa ATCC 9027, Staphylococcus aureus ATCC 33591, Candida glabrata ATCC 15126 strains were acquired from the American Type Culture Collection (ATCC, Manassas, USA). All the strains were stored at −80 °C in Roti-Store cryo vials (Carl Roth GmbH, Germany) and before the tests were transferred into fresh Mueller–Hinton broth (MHB, Becton Dickinson, Poland) for bacteria or RPMI-1640 (Sigma-Aldrich, Germany) for fungi and incubated for 24 h at 37 °C. Then, the cultures were cultured on the Mueller–Hinton agar (BioMaxima, Poland) or Sabouraud dextrose agar (SDA, BioMaxima) plates, respectively, and incubated as just mentioned. For microbiological assays, a minimum of three to five well-isolated colonies of the same morphological type were carefully picked from the agar cultures. These colonies were transferred with sterile loop into fresh microbiological medium and incubated with shaking (100 rpm) at 37 °C until they reached logarithmic phase of growth. Cell densities for all assays were adjusted through spectrophotometric measurements (Multiskan GO Microplate Spectrophotometer, Thermo Fisher Scientific, Finland) at 600 and 530 nm for bacteria and fungi, respectively.
(§2) The MICs were determined by broth microdilution method according to the Clinical and Laboratory Standard Institute guidelines. For this purpose, initial inoculums of bacteria (5 × 10^5 CFU/mL) in MHB and yeasts (2 × 10^3 CFU/mL) in RPMI-1640 with 2% D-glucose were exposed to the ranging concentration of lipopeptides (1–512 μg/mL) and incubated at 37 °C for 18 h and 24 h, respectively. The experiments were conducted on 96-well microtiter polystyrene plates (Kartell, Italy). The growth was assessed visually after incubation and the MIC was assumed as the lowest peptide concentration at which a noticeable growth of microorganisms was inhibited. Benzalkonium chloride (Sigma-Aldrich, Germany) was used as reference compound. All experiments were conducted in triplicate.

[1] = tested on: human red blood cells (RBCs); assay type: cell-based; conditions: red cells of human
Method: The hemolysis assay was conducted using a procedure described previously. For this purpose, human red blood cells (RBCs) isolated from K2EDTA Single Donor Human Whole blood (Innovative Research, Inc, MI, USA) were rinsed with Phosphate-buffer saline (PBS, pH 7.4±0.05, composition - KCl 2.7 mM, NaCl 140 mM, phosphate 10mM; AppliChem GmbH, Germany) by centrifugation for 10 min at 800 × g. This process was repeated 3 times and the RBCs were resuspended in PBS. Then, the stock solution of RBCs was added to the serial dilution of lipopeptides on 96-well polystyrene plates to reach a final volume of 100 μL with a 4% concentration of erythrocytes (v/v) and a concentration range of 1-512 μg/mL of tested compounds. The control wells for 0% and 100% hemolysis consisted of RBCs suspended in PBS and 1% of Triton X-100 (Sigma-Aldrich, Germany), respectively. Benzalkonium chloride (Sigma-Aldrich, Germany) was used as reference compound. Subsequently, the plates were incubated for 60 min at 37 °C and then centrifuged at 800 × g for 10 min at 4 °C (Sorvall ST […] Centrifuge, Thermo Scientific). The supernatant was carefully […] to new microtiter plates. The release of hemoglobin was monitored absorbance measurements at 540 nm (MultiskanTM GO Microplate Spectrophotometer, Thermo Scientific). All experiments were conducted in triplicate. HC50 was calculated using an ic50.tk tool.

[2] = tested on: human keratinocyte cell line (HaCaT); assay type: cell-based; conditions: 24 h
Method: The immortalized human keratinocyte cell line (HaCaT), obtained from CLS (Cell Line Service, Germany) was cultured in DMEM-high glucose (Dulbecco’s Modified Eagle Medium) supplemented with 10% fetal bovine serum, 2 mM L-glutamine, 100 U/mL penicillin and 100 μg/mL streptomycin (Sigma-Aldrich; Merck KGaA) at 37 °C in a humidified atmosphere with 5% CO2. Cells were trypsinized, and the medium was renewed 2–3 times per week. The cytotoxicity of compounds was assessed by colorimetric CellTilter 96® Aqueous One Solution Cell Proliferation Assay (Promega, USA), containing a tetrazolium compound according to the manufacturer’s instructions. In brief, 7 × 10^3 HaCaT cells per well were plated on 96-well plates and incubated per night to adhere to the cultured dishes. After that time, different concentrations of the tested compounds ranging from 512 to 1 μg/mL were applied to the wells. Every compound was medium-soluble at 37 °C; thus, the non-treated cells were negative control. Serial dilutions of the tested compounds were always prepared before use. Cells were incubated with drugs for 24 h, and then, 20 μL of the CellTiter 96®AqueousOne Solution Reagent was added to each well containing treated cells in 100 µl of culture medium. After 4 h of incubation at 37 °C, the absorbance at 490 nm was recorded using a microplate reader (Epoch, BioTek Instruments, USA). The quantity of formazan product as measured by the amount of 490 nm absorbance is directly proportional to the number of living cells in culture. Benzalkonium chloride (Sigma-Aldrich, Germany) was used as reference compound. At least three independent experiments with two replicates were conducted for each concentration of a compound, and the IC50 values were calculated using GraphPad Prism 8 software.

C. glabrata ATCC 15126 = assay type: cell-based, Candida glabrata
Method: as §1, §2

[3] = tested on: A. baumannii ATCC BAA 1605; assay type: cell-based, Acinetobacter baumannii; conditions: ATCC BAA 1605, 18 h
Method: as §1, §2

E. faecium ATCC 700221 = assay type: cell-based, Enterococcus faecium; conditions: ATCC 700221, 18 h
Method: as §1, §2

[4] = tested on: K. pneumoniae ATCC 700603; assay type: cell-based, Klebsiella pneumoniae; conditions: ATCC 700603, 18 h
Method: as §1, §2

K. aerogenes ATCC 13048 = assay type: cell-based, Klebsiella aerogenes; conditions: ATCC 13048, 18 h
Method: as §1, §2

S. aureus ATCC 33591 = assay type: cell-based, Staphylococcus aureus
Method: as §1, §2

| MIC (P. aeruginosa ATCC 9027) [µg/mL] | HC50 [1] [µg/mL] | MIC (C. glabrata ATCC 15126; ATCC 15126, 24 h) [µg/mL] | MIC [3] [µg/mL] | MIC (E. faecium ATCC 700221) [µg/mL] | MIC [4] [µg/mL] | MIC (K. aerogenes ATCC 13048) [µg/mL] | MIC (S. aureus ATCC 33591; S. aureus ATCC 33591, 18 h, 37 °C) [µg/mL] | MIC (C. glabrata ATCC 15126; C. glabrata ATCC 15126, 24 h, 37 °C) [µg/mL] | MIC (S. aureus ATCC 33591; ATCC 33591, 18 h) [µg/mL] | SMILES | IC50 [2] [µg/mL] |
| --- | --- | --- | --- | --- | --- | --- | --- | --- | --- | --- | --- |
| 32 (≈ 50 µM) | 135.46 ± 8.69 | 64 (≈ 100 µM) | 64 (≈ 100 µM) | 8 (≈ 12.5 µM) | 32 (≈ 50 µM) | 8 (≈ 12.5 µM) |  |  |  | CCCCCCCCCCCCCCCC(=O)N[C@@H](CCCCN)C(=O)N[C@@H](CCCCN)C(=O)N[C@@H](CCCCN)C(N)=O [Peptide 3P, C16-KKK-NH2] | 45.40 ± 20.45 (≈ 70.9 µM) |
| >512 | >512 |  | >512 |  | >512 | >512 | > 512 |  |  | CCCCCCCCCCCCCCCCCC(=O)N[C@@H](CCCCN)C(N)=O [Peptide 1S, C18-K-NH2] | 8.34 ± 1.07 (≈ 20.3 µM) |
| >512 | 16.13 ± 9.88 | 4 to 8 | >512 |  | >512 | >512 |  | 4 |  | CCCCCCCCCCCCCCCCCC(=O)N[C@@H](CCCC[N+](C)(C)C)C(N)=O [Peptide 1Sq, C18-K(Me3)^+-NH2] | 14.13 ± 0.39 |
| 128 (≈ 237 µM) | 21.88 ± 0.68 | 8 (≈ 14.8 µM) | 32 (≈ 59.3 µM) | 4 (≈ 7.41 µM) | 64 (≈ 119 µM) | 32 (≈ 59.3 µM) |  |  |  | CCCCCCCCCCCCCCCCCC(=O)N[C@@H](CCCCN)C(=O)N[C@@H](CCCCN)C(N)=O [Peptide 2S, C18-KK-NH2] | 4.33 ± 0.79 (≈ 8.02 µM) |
| 16 (≈ 24 µM) | 32.11 ± 1.54 | 8 (≈ 12 µM) | 32 (≈ 47.9 µM) | 4 (≈ 5.99 µM) | 8 (≈ 12 µM) | 4 (≈ 5.99 µM) |  |  |  | CCCCCCCCCCCCCCCCCC(=O)N[C@@H](CCCCN)C(=O)N[C@@H](CCCCN)C(=O)N[C@@H](CCCCN)C(N)=O [Peptide 3S, C18-KKK-NH2] | 88.51 ± 4.72 (≈ 132 µM) |
| >512 | >512 | >512 |  | 4 (≈ 10.4 µM) | >512 | >512 |  |  | >512 | CCCCCCCCCCCCCCCC(=O)N[C@@H](CCCCN)C(N)=O [Peptide 1P, C16-K-NH2] | 1.74 ± 0.49 (≈ 4.54 µM) |
| 16 (≈ 31.3 µM) | 55.21 ± 1.69 | 16 (≈ 31.3 µM) | 64 (≈ 125 µM) | 8 (≈ 15.6 µM) | 128 (≈ 250 µM) | 32 (≈ 62.5 µM) |  |  |  | CCCCCCCCCCCCCCCC(=O)N[C@@H](CCCCN)C(=O)N[C@@H](CCCCN)C(N)=O [Peptide 2P, C16-KK-NH2] | 10.27 ± 1.59 (≈ 20.1 µM) |
